{"source": "patent US11439650B2", "about": "“Thermo-kinetic mixing for pharmaceutical applications” (BOARD OF REGENTS, THE UNIVERSITY OF TEXAS SYSTEM, priority 2007, dated 2022)", "key": {"[1]": {"test": "HPLC degradation products and mass balance of hydrocortisone formulation processed by TKC", "assay_type": "physicochemical", "protocol": "Pharmaceutical compositions of hydrocortisone were prepared by TKC, having an ejection temperature of approximately 160° C., and compared to the unprocessed drug substance to evaluate the formation of degradation products induced by processing.\nAnalytical testing of the hydrocortisone formulation processed by TKC was performed by HPLC using a Phenomenex C18 column and mobile phase of 65:35 methanol:water at a flow rate of 1 ml/min. Degradation products were identified and are described in terms of their retention time under this method."}, "[2]": {"test": "DSC / modulated DSC glass transition analysis", "assay_type": "physicochemical", "conditions": "DSC/mDSC, 10° C./min", "protocol": "Differential Scanning calorimetry (DSC). DSC analysis was conducted using a TA Instruments Model 2920 DSC (New Castle, Del.) equipped with a refrigerated cooling system. Samples were weighed to 15±5 mg in aluminum crimped pans (Kit 0219-0041, Perkin-Elmer Instruments, Norwalk, Conn.). For the KTZ dispersions in Methocel™ E50 and Kollidon® 30 the samples were heated at a ramp rate of 10° C./min from 5 to 215° C. with a modulation temperature amplitude of 0.5° C. and a modulation period of 40 seconds for all studies. For the IND and KTZ dispersions in […]® L 100-55 the samples were analyzed by conventional, non-modulated DSC at a ramp rate of 10° C./min from 5 to 200° C. Ultrahigh purity nitrogen was used as the purge gas at a flow rate of 40 mL/min. All data analyses were performed using TA Universal Analysis 2000 software. The thermogram for amorphous KTZ, used in the DSC analysis of the solid dispersions formulations of KTZ in Methocel™ E50 and Kollidon® 30 was obtained on a second heating of crystalline KTZ following an initial heating to 215° C. followed by rapid cooling (20° C./min) to 5° C. The thermograms of Methocel™ E50 and Kollidon® 30 were obtained by first run DSC following preheating of the polymer powders to 90° C. for 15 minutes in an MF-50 model moisture analyzer (AND Company Ltd. Encino, Calif.) to expel absorbed moisture.\nModulated Differential scanning calorimetry testing for the griseofulvin products was performed using a TA Instruments Model 2920 DSC (New Castle, Del.) and analyzed using TA Universal Analysis 2000 Software. Samples were accurately weighed to 15±2 mg in aluminum crimped pans. […]\nModulated Differential scanning calorimetry testing of itraconazole:HPMC E5 processed by TKC and by HME was performed using a TA Instruments Model 2920 DSC (New Castle, Del.) and analyzed using TA Universal Analysis 2000 Software. […]\nThe tested were conducted on a TA Instruments Model 2920 DSC (New Castle, Del.) and analyzed using TA Universal Analysis 2000 Software. […]"}, "[3]": {"conditions": "neutral pH media; reference (42); cited from earlier work"}}, "data": [{"smiles": "C[C@]12CCC(=O)C=C1CC[C@@H]1[C@@H]2[C@@H](O)C[C@@]2(C)[C@H]1CC[C@]2(O)C(=O)CO", "note": "[Hydrocortisone, USP, Hydrocortisone]", "values": [{"measurement": "Impurity - 3.2", "setting": "[1]; HPLC retention time 3.2", "result": 0.20, "unit": "%"}, {"measurement": "Impurity - 3.9", "setting": "[1]; HPLC retention time 3.9", "result": 0.26, "unit": "%"}, {"measurement": "Impurity - 4.9", "setting": "[1]; HPLC retention time 4.9", "result": 0.20, "unit": "%"}, {"measurement": "Impurity - 5.5", "setting": "[1]; HPLC retention time 5.5", "result": 0.62, "unit": "%"}, {"measurement": "Impurity - 8.7", "setting": "[1]; HPLC retention time 8.7", "result": 0.13, "unit": "%"}]}, {"smiles": "CC(=O)N1CCN(c2ccc(OCC3COC(Cn4ccnc4)(c4ccc(Cl)cc4Cl)O3)cc2)CC1", "note": "(stereo not drawn) [amorphous KTZ, ketoconazole]", "values": [{"measurement": "glass transition temperature (Tg)", "setting": "[2]", "result": 45, "unit": "°C"}, {"measurement": "glass transition temperature (Tg)", "setting": "[2]; listed as Amorphous KTZ", "result": "approximately 45 °C"}]}, {"smiles": "CC(=O)N1CCN(c2ccc(OCC3COC(Cn4ccnc4)(c4ccc(Cl)cc4Cl)O3)cc2)CC1", "note": "(stereo not drawn) [KTZ, ketoconazole]", "values": [{"measurement": "equilibrium (saturation) solubility", "setting": "[3]", "result": 5.98, "unit": "µg/mL"}]}, {"smiles": "COC1=CC(=O)C[C@@H](C)[C@]12Oc1c(Cl)c(OC)cc(OC)c1C2=O", "note": "[amorphous griseofulvin, griseofulvin]", "values": [{"measurement": "glass transition temperature (Tg)", "setting": "[2]", "result": 90, "unit": "°C"}]}]}
